Measured values taken from patent US9469608B2, “Thrombin inhibitors” (Merck Sharp & Dohme Corp., priority 2012, dated 2016).
Read-outs that look alike come from different tables or passages of the source.

Target: human α-thrombin (Homo sapiens (Human), UniProt P00734)
Test: In vitro assay for determining proteinase inhibition (thrombin Ki)
Format: biochemical
Description: NMR determinations were made using 400 MHz field strength. Ki data was obtained according to the procedure described in Lewis, et al. Thromb. […] Reactions sensitive to moisture or air were performed under nitrogen or argon using anhydrous solvents and reagents. […] Typically, the analytical LC-MS system used consisted of a Waters ZQ platform with electrospray ionization in positive ion detection mode with an Agilent 1100 series HPLC with autosampler. The column was usually a Water Xterra MS C18, 3.0×50 mm, 5 μm. The flow rate was 1 mL/min, and the injection volume was 10 μL. UV detection was in the range 210-400 nm. […] Preparative HPLC purifications were usually performed using a mass spectrometry directed system. […] The mobile phases consisted of mixtures of acetonitrile (10-100%) in water containing 0.1% TFA. Flow rates were maintained at 50 mL/min, the injection volume was 1800 μL, and the UV detection range was 210-400 nm. Mobile phase gradients were optimized for the individual compounds. Reactions performed using microwave irradiation were normally carried out using an Emrys Optimizer manufactured by Personal Chemistry, or an Initiator manufactured by Biotage. Concentration of solutions was carried out on a rotary evaporator under reduced pressure. Flash chromatography was usually performed using a Biotage Flash Chromatography apparatus (Dyax Corp.) on silica gel ([…], 60 Å pore size) in pre-packed cartridges of the size noted. ^1H NMR spectra were acquired at 500 MHz spectrometers in CDCl3 solutions unless otherwise noted. Chemical shifts were reported in parts per million (ppm). Tetramethylsilane (TMS) was used as internal reference in CD3Cl solutions, and residual CH3OH peak or TMS was used as internal reference in CD3OD solutions. Coupling constants (J) were reported in hertz (Hz). Chiral analytical chromatography was performed on one of Chiralpak AS, Chiralpak AD, Chiralcel OD, Chiralcel IA, or Chiralcel OJ columns (250×4.6 mm) (Daicel Chemical Industries, Ltd.) with noted percentage of either ethanol in hexane (% Et/Hex) or isopropanol in heptane (% IPA/Hep) as isocratic solvent systems. Chiral preparative chromatography was conducted on one of Chiralpak AS, Chiralpak AD, Chiralcel OD, Ciralcel IA, or Chiralcel OJ columns (20×250 mm) (Daicel Chemical Industries, Ltd.) with desired isocratic solvent systems identified on chiral analytical chromatography or by supercritical fluid (SFC) conditions. Celite® (Fluka) diatomite is diatomaceous earth, and can be referred to as “celite”.
Relevant in vitro assays are referenced in Morrissette, et al., Bioorg. […] The assays were carried out at 25° C. in 0.05 M TRIS buffer pH 7.4, 0.15 M NaCl, 0.1% PEG. Trypsin assays also contained 1 mM CaC12.
Concentrations of stock solutions of Z-GPR-afc were determined from measurements of absorbance at 380 nm of the 7-amino-4-trifluoromethyl coumarin produced upon complete hydrolysis of an aliquot of the stock solution by thrombin.
Activity assays were performed by diluting a stock solution of substrate at least tenfold to a final concentration ≦0.1 Km into a solution containing enzyme or enzyme equilibrated with inhibitor. Times required to achieve equilibration between enzyme and inhibitor were determined in control experiments. Initial velocities of product formation in the absence (Vo) or presence of inhibitor (Vi) were measured. Assuming competitive inhibition, and that unity is negligible compared Km/[S], [I]/e, and [I]/e (where [S], [I], and e respectively represent the total concentrations, of substrate, inhibitor and enzyme), the equilibrium constant (Ki) for dissociation of the inhibitor from the enzyme can be obtained from the dependence of Vo/Vi on [I] shown in the following equation.

[1] = 25° C., 0.05 M TRIS buffer pH 7.4, 0.15 M NaCl, 0.1% PEG, competitive inhibition assumed

Ki [1]	SMILES	Ki
260 nM	NCc1ccc(Cl)cc1CNC(=O)[C@@H]1CCCN1C(=O)c1ncccn1 [Compound 42-3, (S)—N-(2-(Aminomethyl)-5-chlorobenzyl)-1-(pyrimidine-2-carbonyl)pyrrolidine-2-carboxamide bis(2,2,2-trifluoroacetate)]	
526 nM	C[C@@]1(C(=O)NCc2cc(Cl)ccc2CN)CCCN1C(=O)[C@H]1CCC(=O)N1 [Compound 43, (S)-N-(2-(aminomethyl)-5-chlorobenzyl)-2-methyl-1-((R)-5-oxopyrrolidine-2-carbonyl)pyrrolidine-2-carboxamide]	
104 nM	C[C@@]1(C(=O)NCc2cc(Cl)ccc2CN)CCCN1C(=O)c1ccc(Cl)[nH]1 [Compound 44, (S)-N-(2-(aminomethyl)-5-chlorobenzyl)-1-(5-chloro-1H-pyrrole-2-carbonyl)-2-methylpyrrolidine-2-carboxamide]	
93 nM	Cc1ccc(C(=O)N2CCC[C@@]2(C)C(=O)NCc2cc(Cl)ccc2CN)[nH]1 [Compound 45, (S)-N-(2-(aminomethyl)-5-chlorobenzyl)-2-methyl-1-(5-methyl-1H-pyrrole-2-carbonyl)pyrrolidine-2-carboxamide]	

Further lines, the compound ahead of its results:

SMILES	Ki [1]	Ki
NCc1ccc(Cl)cc1CNC(=O)[C@@H]1CCCN1C(=O)C1(O)CCCc2ncccc21 (stereo partly drawn) [Compound 30-6, (2S)-N-{2-(Aminomethyl)-5-chlorobenzyl}-1-(5-hydroxy-5,6,7,8-tetrahydroquinoline-5-carbonyl)pyrrolidine-2-carboxamide bis(2,2,2-trifluoroacetate)]	11 nM	
NCc1ccc(Cl)cc1CNC(=O)[C@@H]1CCCN1C(=O)C1(O)CCCc2cnccc21 (stereo partly drawn) [Compound 31-7, (2S)-N-{2-(Aminomethyl)-5-chlorobenzyl}-1-(5-hydroxy-5,6,7,8-tetrahydroisoquinoline-5-carbonyl)pyrrolidine-2-carboxamide bis(2,2,2-trifluoroacetate)]	4.8 nM	
NCc1ccc(Cl)cc1CNC(=O)[C@@H]1CCCN1C(=O)C1(O)CCCc2cccnc21 (stereo partly drawn) [Compound 32-7, (2S)-N-{2-(aminomethyl)-5-chlorobenzyl}-1-(8-hydroxy-5,6,7,8-tetrahydroquinoline-8-carbonyl)pyrrolidine-2-carboxamide bis(2,2,2-trifluoroacetate)]	3.9 nM	
NCc1ccc(Cl)cc1CNC(=O)[C@@H]1CCN1C(=O)C1OCc2ccccc21 (stereo partly drawn) [Compound 33-7, (2S)-N-{2-(Aminomethyl)-5-chlorobenzyl}-1-(1,3-dihydroisobenzofuran-1-carbonyl)azetidine-2-carboxamide-2,2,2-trifluoroacetate]		39 nM
NCc1ccc(Cl)cc1CNC(=O)[C@@H]1CCN1C(=O)C1NCc2ccccc21 (stereo partly drawn) [Compound 34-7, (2S)-N-{2-(aminomethyl)-5-chlorobenzyl}-1-(isoindoline-1-carbonyl)azetidine-2-carboxamide bis(2,2,2-trifluoroacetate)]	2.5 nM	
NCc1ccc(Cl)cc1CNC(=O)[C@@H]1CCN1C(=O)C1CNc2ccccc21 (stereo partly drawn) [Compound 35-7, (2S)-N-{2-(Aminomethyl)-5-chlorobenzyl}-1-(indoline-3-carbonyl)azetidine-2-carboxamide bis(2,2,2-trifluoroacetate)]	110 nM	
O=C(NCc1cc(Cl)ccc1-n1cnnn1)[C@@H]1CCCN1C(=O)C1(O)CCc2cccnc21 (stereo partly drawn) [Compound 36-3, (2S)-N-{5-Chloro-2-(1H-tetrazol-1-yl)benzyl}-1-(7-hydroxy-6,7-dihydro-5H-cyclopenta[b]pyridine-7-carbonyl)pyrrolidine-2-carboxamide]	2.5 nM	
NCc1ccc(Cl)cc1CNC(=O)[C@@H]1CCCN1C(=O)[C@H]1CCCO1 [Compound 38-4, (S)—N-{2-(Aminomethyl)-5-chlorobenzyl}-1-{(R)-tetrahydrofuran-2-carbonyl}pyrrolidine-2-carboxamide-2,2,2-trifluoroacetate]		100 nM
